In PubChem BioAssay (NCI):
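Cultured in 96-well plates, cells were exposed to test compound for 48 hours across five concentrations. TGI denotes the concentration required for complete inhibition of growth.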

Assays:
Assay in all cases: NCI tumour cell line growth inhibition, 48 h
[1] = test system: IGROV1 ovarian
[2] = test system: TK-10 renal
[3] = test system: NCI-H226 lung
[4] = test system: SNB-19 CNS
[5] = test system: HCT-15 colon
[6] = test system: 786-0 renal
[7] = test system: OVCAR-8 ovarian
[8] = test system: NCI-H460 lung
[9] = test system: OVCAR-5 ovarian
[10] = test system: SN12C renal
[11] = test system: MDA-MB-231 breast
[12] = test system: SF-539 CNS
[13] = test system: SK-OV-3 ovarian
[14] = test system: MCF7 breast
[15] = test system: HCC-2998 colon
[16] = test system: BT-549 breast
[17] = test system: EKVX NSCLC
[18] = test system: PC-3 prostate
[19] = test system: COLO 205 colon
[20] = test system: SF-295 CNS
[21] = test system: T-47D breast
[22] = test system: HL-60(TB) leukemia
[23] = test system: OVCAR-3 ovarian
[24] = test system: UACC-257 melanoma
[25] = test system: NCI-H23 lung
[26] = test system: LOX IMVI melanoma
[27] = test system: SK-MEL-5 melanoma
[28] = test system: CAKI-1 renal
[29] = test system: HOP-92 NSCLC
[30] = test system: KM12 colon
[31] = test system: A549 NSCLC
[32] = test system: MOLT-4 leukemia
[33] = test system: SK-MEL-28 melanoma
[34] = test system: MDA-MB-435
[35] = test system: SNB-75 CNS
[36] = test system: HT29 colon
[37] = test system: ACHN renal
[38] = test system: DU-145 prostate
[39] = test system: U251 CNS
[40] = test system: HCT-116 colon
[41] = test system: M14 melanoma
[42] = test system: SW-620 colon
[43] = test system: HOP-62 NSCLC
[44] = test system: UACC-62 melanoma
[45] = test system: NCI/ADR-RES ovarian
[46] = test system: UO-31 renal
[47] = test system: SK-MEL-2 melanoma
[48] = test system: MDA-N
[49] = test system: OVCAR-4 ovarian
[50] = test system: RXF 393 renal
[51] = test system: A498 renal
[52] = test system: RPMI-8226 leukemia
[53] = test system: SR leukemia
[54] = test system: CCRF-CEM leukemia

## CC(=O)C1C(=O)C(=O)N(c2ccc(Cl)c(Cl)c2)C1=O (stereo unspecified)
[1]
  TGI: > 100 µM
[2]
  TGI: > 100 µM
[3]
  TGI: > 100 µM
[4]
  TGI: > 100 µM
[5]
  TGI: > 100 µM
[6]
  TGI: > 100 µM
[7]
  TGI: > 100 µM
[8]
  TGI: > 100 µM
[9]
  TGI: > 100 µM
[10]
  TGI: > 100 µM
[11]
  TGI: > 100 µM
[12]
  TGI: > 100 µM
[13]
  TGI: > 100 µM
[14]
  TGI: > 100 µM
[15]
  TGI: > 100 µM
[16]
  TGI: > 100 µM
[17]
  TGI: > 100 µM
[18]
  TGI: > 100 µM
[19]
  TGI: > 100 µM
[20]
  TGI: > 100 µM
[21]
  TGI: > 100 µM
[22]
  TGI: > 100 µM
[23]
  TGI: > 100 µM
[24]
  TGI: > 100 µM
[25]
  TGI: > 100 µM
[26]
  TGI: > 100 µM
[27]
  TGI: > 100 µM
[28]
  TGI: > 100 µM
[29]
  TGI: > 100 µM
[30]
  TGI: > 100 µM
[31]
  TGI: > 100 µM
[32]
  TGI: > 100 µM
[33]
  TGI: > 100 µM
[34]
  TGI: > 100 µM
[35]
  TGI: > 100 µM
[36]
  TGI: > 100 µM
[37]
  TGI: > 100 µM
[38]
  TGI: > 100 µM
[39]
  TGI: > 100 µM
[40]
  TGI: > 100 µM
[41]
  TGI: > 100 µM
[42]
  TGI: > 100 µM
[43]
  TGI: > 100 µM
[44]
  TGI: > 100 µM
[45]
  TGI: > 100 µM
[46]
  TGI: > 100 µM
[47]
  TGI: > 100 µM
[48]
  TGI: > 100 µM

## C=CCc1cccc2cc(C(N)=O)c(=N)oc12
[49]
  TGI: > 100 µM
[1]
  TGI: 90.3 µM
[3]
  TGI: > 100 µM
[4]
  TGI: > 100 µM
[50]
  TGI: > 100 µM
[5]
  TGI: > 100 µM
[6]
  TGI: > 100 µM
[7]
  TGI: > 100 µM
[8]
  TGI: > 100 µM
[9]
  TGI: > 100 µM
[10]
  TGI: > 100 µM
[11]
  TGI: > 100 µM
[13]
  TGI: > 100 µM
[15]
  TGI: > 100 µM
[16]
  TGI: > 100 µM
[18]
  TGI: > 100 µM
[19]
  TGI: > 100 µM
[21]
  TGI: > 100 µM
[22]
  TGI: > 100 µM
[23]
  TGI: > 100 µM
[24]
  TGI: > 100 µM
[25]
  TGI: > 100 µM
[51]
  TGI: > 100 µM
[52]
  TGI: > 100 µM
[26]
  TGI: > 100 µM
[27]
  TGI: > 100 µM
[28]
  TGI: > 100 µM
[29]
  TGI: > 100 µM
[30]
  TGI: > 100 µM
[31]
  TGI: > 100 µM
[32]
  TGI: > 100 µM
[33]
  TGI: > 100 µM
[34]
  TGI: > 100 µM
[35]
  TGI: > 100 µM
[36]
  TGI: > 100 µM
[37]
  TGI: > 100 µM
[38]
  TGI: > 100 µM
[39]
  TGI: > 100 µM
[40]
  TGI: > 100 µM
[41]
  TGI: > 100 µM
[42]
  TGI: > 100 µM
[53]
  TGI: > 100 µM
[43]
  TGI: > 100 µM
[44]
  TGI: > 100 µM
[45]
  TGI: > 100 µM
[54]
  TGI: > 100 µM
[47]
  TGI: > 100 µM
[48]
  TGI: > 100 µM
